Results: the supplement of paper PMC10331698
± gives the standard deviation of the averaged measurements.

Experiments:
Test in all cases: level (log10 ratio to DMSO vehicle control); higher = higher biomarker level / cell amount than vehicle control
[1] = compound: O=C(O)C(F)(F)C(F)(F)C(F)(F)C(F)(F)C(F)(F)C(F)(F)C(F)(F)F [Perfluorooctanoic acid]; conditions: in DMSO
Method: (§1)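 BioMAP Diversity Plus panel of 12 human primary cell co-culture systems (3C, 4H, LPS, SAg, BT, BF4T, BE3C, CASM3C, HDF3CGF, KF3CT, MyoF, Mphg). Compounds were added 1 h before stimulation and left for 24 h (MyoF 48 h; BT 72 h for soluble read-outs or 6 d for IgG). Biomarkers were read by ELISA, cytotoxicity by SRB, PBMC viability and proliferation by Alamar Blue. Each well value was divided by the mean of 8 DMSO control wells on the same plate and log10 transformed; duplicate blinded samples were tested at 4 concentrations.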

[2] = compound: C=CC(=O)OCC(F)(F)C(F)(F)C(F)(F)C(F)(F)COC(=O)C=C [1H,1H,6H,6H-Perfluorohexane-1,6-diol diacrylate]; conditions: 6700 nM; in DMSO
Method: as §1

[3] = compound: O=S(=O)(OCC(F)(F)F)C(F)(F)C(F)(F)C(F)(F)C(F)(F)F [2,2,2-Trifluoroethyl perfluorobutanesulfonate]; conditions: in DMSO
Method: as §1

[4] = compound: OCCC(F)(F)C(F)(F)C(F)(F)C(F)(F)C(F)(F)C(F)(F)C(F)(F)C(F)(F)F [8:2 Fluorotelomer alcohol]; conditions: 6700 nM; in DMSO
Method: as §1

[5] = compound: FC(F)(I)C(F)(F)C(F)(F)C(F)(F)C(F)(F)C(F)(F)I [1,6-Diiodoperfluorohexane]; conditions: 6700 nM; in DMSO
Method: as §1

[6] = compound: C=C(C)C(=O)OCC(F)(F)C(F)(F)C(F)(F)F [2,2,3,3,4,4,4-Heptafluorobutyl methacrylate]; conditions: in DMSO
Method: as §1

[7] = compound: O=C(Cl)C(F)(F)C(F)(F)C(F)(F)C(=O)Cl [Hexafluoroglutaryl chloride]; conditions: in DMSO
Method: as §1

[8] = compound: O=C(O)C(F)(F)C(F)(F)C(F)(F)C(F)(F)C(F)(F)C(F)(F)C(F)(F)F [Ammonium perfluorooctanoate]; conditions: in DMSO
Method: as §1

Test System | level (log10) ([1]; 6700 nM) | level (log10) ([1]; 20000 nM) | level (log10) ([1]; 60000 nM) | level (log10) [2] | level (log10) ([3]; 6700 nM) | level (log10) ([3]; 20000 nM) | level (log10) ([3]; 60000 nM) | level (log10) [4] | level (log10) [5] | level (log10) ([6]; 6700 nM) | level (log10) ([6]; 20000 nM) | level (log10) ([6]; 60000 nM) | level (log10) ([7]; 6700 nM) | level (log10) ([7]; 20000 nM) | level (log10) ([7]; 60000 nM) | level (log10) ([8]; 6700 nM) | level (log10) ([8]; 20000 nM) | level (log10) ([8]; 60000 nM)
BF4T:CCL26/Eotaxin-3 | -0.023 ± 0.023 | -0.073 ± 0.013 | -0.11 ± 0.06 | -0.055 ± 0.025 | -0.0015 ± 0.016 | -0.018 ± 0.0071 | -0.014 ± 0.037 | -0.106 ± 0.012 | -0.071 | 0.032 ± 0.069 | 0.0385 ± 0.05 | 0.0235 ± 0.052 | 0.023 ± 0.031 | 0.017 ± 0.033 | 0.035 ± 0.045 | 0.004 ± 0.02 | -0.044 ± 0.025 | -0.086
BF4T:MMP-3 | -0.007 ± 0.018 | 0.007 ± 0.0028 | 0.023 ± 0.021 | 0.085 ± 0.038 | -0.012 ± 0.0085 | -0.0055 ± 0.0035 | 0.02 ± 0.037 | -0.001 ± 0.0014 | -0.029 | -0.009 ± 0.03 | -0.011 ± 0.0085 | 0.006 ± 0.0085 | -0.004 ± 0.011 | -0.0145 ± 0.0064 | 0.019 ± 0.0057 | 0.003 ± 0.0014 | 0.0165 ± 0.011 | 0.084 ± 0.02
3C:CXCL9/MIG | 0.001 ± 0.021 | 0.0095 ± 0.023 | 0.0265 ± 0.022 | 0.002 ± 0.0042 | 0.0075 ± 0.043 | 0.0045 ± 0.026 | 0.0025 ± 0.022 | -0.015 ± 0.0071 | -0.002 | -0.0035 ± 0.005 | 0.002 | 0.0095 ± 0.021 | -0.0035 ± 0.005 | -0.004 ± 0.0014 | 0.002 ± 0.0085 | -0.006 ± 0.02 | 0.002 ± 0.0099 | 0.0285 ± 0.013
SAg:SRB | -0.018 ± 0.013 | 0.0045 ± 0.012 | -0.053 ± 0.017 | -0.0115 ± 0.005 | 0.0025 ± 0.013 | -0.0045 ± 0.0021 | -0.005 | -0.0185 ± 0.00071 | 0.011 | -0.0005 ± 0.0078 | 0.0035 ± 0.0035 | 0.002 ± 0.0099 | -0.0025 ± 0.0035 | -0.0035 ± 0.0035 | 0.0045 ± 0.0021 | -0.013 ± 0.0042 | -0.012 ± 0.0057 | -0.034 ± 0.0042
SAg:CD40 | 0.002 ± 0.013 | -0.017 ± 0.014 | -0.0415 ± 0.012 | -0.0895 ± 0.023 | -0.0165 ± 0.018 | -0.019 ± 0.017 | -0.0635 ± 0.049 | 0 ± 0.0042 | -0.018 | -0.038 ± 0.02 | -0.032 ± 0.011 | -0.023 ± 0.025 | 0.0105 ± 0.042 | 0.0085 ± 0.0021 | -0.0085 ± 0.043 | -0.008 ± 0.011 | -0.022 | -0.0695 ± 0.011
BF4T:PAI-I | 0.0005 ± 0.0021 | 0.0015 ± 0.0021 | -0.007 ± 0.0099 | -0.015 ± 0.0014 | -0.0035 ± 0.0035 | -0.0075 ± 0.00071 | -0.0025 ± 0.0021 | -0.0135 ± 0.0035 | -0.072 | -0.0035 ± 0.00071 | 0.0015 ± 0.0064 | 0.007 | -0.01 ± 0.014 | -0.002 ± 0.0042 | -0.0005 ± 0.005 | 0.011 ± 0.0085 | 0.0055 ± 0.0021 | 0.0185 ± 0.016
SAg:CD62E/E-Selectin | 0.009 ± 0.0057 | 0.015 ± 0.0085 | 0.086 ± 0.0014 | -0.15 ± 0.021 | -0.0065 ± 0.015 | 0.006 ± 0.018 | 0.03 ± 0.013 | -0.012 | 0 | 0.0045 ± 0.039 | -0.0225 ± 0.011 | 0.0015 ± 0.019 | -0.018 ± 0.03 | -0.024 ± 0.014 | -0.012 ± 0.0042 | 0.0045 ± 0.0035 | 0.02 ± 0.013 | 0.035 ± 0.0014
SAg:Proliferation | 0.044 ± 0.0085 | 0.041 | 0.016 ± 0.025 | -0.296 ± 0.063 | -0.0055 ± 0.032 | -0.053 ± 0.023 | -0.048 ± 0.018 | -0.064 ± 0.028 | -0.028 | -0.042 ± 0.069 | -0.004 ± 0.03 | -0.0045 ± 0.033 | 0.0165 ± 0.026 | 0.0255 ± 0.013 | 0.001 ± 0.013 | 0.002 ± 0.0085 | 0.0175 ± 0.029 | 0.044 ± 0.044
BF4T:tPA | -0.065 ± 0.05 | -0.0715 ± 0.03 | -0.093 ± 0.031 | -0.0425 ± 0.0021 | 0.0025 ± 0.0021 | 0.011 ± 0.023 | 0.015 ± 0.0028 | -0.103 ± 0.029 | -0.119 | -0.0165 ± 0.032 | 0.0025 ± 0.00071 | 0.012 ± 0.023 | 0.0095 ± 0.0078 | -0.019 ± 0.0099 | -0.0095 ± 0.019 | -0.0185 ± 0.0064 | -0.041 ± 0.018 | -0.0565 ± 0.0021
LPS:sPGE2 | 0.0065 ± 0.016 | -0.067 ± 0.02 | -0.159 ± 0.064 | -0.0195 ± 0.0064 | 0.049 ± 0.02 | -0.006 ± 0.038 | -0.024 ± 0.018 | -0.11 ± 0.033 | -0.063 | 0.05 ± 0.042 | -0.009 ± 0.024 | 0.076 ± 0.014 | -0.011 ± 0.018 | -0.0375 ± 0.026 | -0.056 ± 0.03 | -0.0185 ± 0.022 | -0.067 ± 0.018 | -0.172 ± 0.044
BE3C:CXCL10/IP-10 | -0.021 ± 0.017 | -0.0275 ± 0.013 | -0.118 ± 0.022 | -0.0095 ± 0.0064 | 0.021 ± 0.0057 | 0.003 ± 0.0028 | 0.011 ± 0.011 | -0.0515 ± 0.057 | 0.008 | 0.0365 ± 0.029 | 0.0225 ± 0.04 | 0.0135 ± 0.035 | 0.0325 ± 0.035 | 0.032 ± 0.028 | 0.0265 ± 0.043 | 0.0065 ± 0.015 | -0.0135 ± 0.00071 | -0.163 ± 0.061
LPS:M-CSF | 0.0255 ± 0.054 | -0.016 ± 0.1 | 0.06 ± 0.078 | -0.021 ± 0.021 | -0.01 ± 0.016 | -0.046 ± 0.02 | -0.09 ± 0.0085 | -0.06 ± 0.13 | -0.008 | 0.0125 ± 0.042 | 0.007 ± 0.035 | 0.0165 ± 0.023 | -0.014 ± 0.05 | 0.001 ± 0.0085 | -0.0105 ± 0.005 | 0.0145 ± 0.023 | 0.005 ± 0.031 | 0.007 ± 0.018
BT:sIL-17A | 0.009 ± 0.048 | -0.165 ± 0.11 | -0.0845 ± 0.12 | -0.863 ± 0.015 | 0.053 ± 0.2 | 0.214 ± 0.093 | 0.184 ± 0.1 | -0.034 ± 0.12 | -0.079 | -0.0665 ± 0.11 | 0.042 ± 0.065 | 0.0245 ± 0.086 | 0.005 ± 0.098 | -0.049 ± 0.18 | 0.0285 ± 0.13 | -0.168 ± 0.2 | -0.0675 ± 0.037 | -0.282 ± 0.23
SAg:CXCL8/IL-8 | 0.015 ± 0.016 | 0.0165 ± 0.028 | 0.0745 ± 0.029 | -0.102 ± 0.011 | 0.0205 ± 0.029 | 0.034 ± 0.024 | 0.134 ± 0.086 | -0.0115 ± 0.047 | -0.012 | -0.003 ± 0.061 | -0.002 ± 0.075 | 0.006 ± 0.02 | -0.024 ± 0.0071 | -0.029 ± 0.042 | 0.0065 ± 0.005 | -0.0325 ± 0.026 | 0.007 ± 0.013 | 0.127 ± 0.16
LPS:CD40 | 0.006 ± 0.025 | -0.032 ± 0.057 | -0.0815 ± 0.022 | -0.1475 ± 0.00071 | -0.014 ± 0.017 | -0.0495 ± 0.0035 | -0.104 ± 0.064 | -0.068 ± 0.014 | -0.009 | 0.0015 ± 0.037 | 0.024 ± 0.034 | 0.0525 ± 0.012 | -0.011 ± 0.057 | 0.0315 ± 0.032 | -0.0375 ± 0.063 | 0.024 ± 0.025 | 0.0265 ± 0.088 | -0.117 ± 0.093
